The values that follow come from patent US20250221966A1, “RXFP1 AGONISTS” (BRISTOL-MYERS SQUIBB COMPANY, priority 2021, published 2025).

The pEC50 is the EC50 on a negative log10 scale, so that one unit is a factor of ten.

pEC50: −log10 of the molar value. Like-named read-outs stand apart in the source and are kept apart here.

This experiment deals with T1, human RXFP1 (Homo sapiens, UniProt Q9HBX9).
T1 construct: expressed in transfected cells
T1 sequence (Q9HBX9 1-757): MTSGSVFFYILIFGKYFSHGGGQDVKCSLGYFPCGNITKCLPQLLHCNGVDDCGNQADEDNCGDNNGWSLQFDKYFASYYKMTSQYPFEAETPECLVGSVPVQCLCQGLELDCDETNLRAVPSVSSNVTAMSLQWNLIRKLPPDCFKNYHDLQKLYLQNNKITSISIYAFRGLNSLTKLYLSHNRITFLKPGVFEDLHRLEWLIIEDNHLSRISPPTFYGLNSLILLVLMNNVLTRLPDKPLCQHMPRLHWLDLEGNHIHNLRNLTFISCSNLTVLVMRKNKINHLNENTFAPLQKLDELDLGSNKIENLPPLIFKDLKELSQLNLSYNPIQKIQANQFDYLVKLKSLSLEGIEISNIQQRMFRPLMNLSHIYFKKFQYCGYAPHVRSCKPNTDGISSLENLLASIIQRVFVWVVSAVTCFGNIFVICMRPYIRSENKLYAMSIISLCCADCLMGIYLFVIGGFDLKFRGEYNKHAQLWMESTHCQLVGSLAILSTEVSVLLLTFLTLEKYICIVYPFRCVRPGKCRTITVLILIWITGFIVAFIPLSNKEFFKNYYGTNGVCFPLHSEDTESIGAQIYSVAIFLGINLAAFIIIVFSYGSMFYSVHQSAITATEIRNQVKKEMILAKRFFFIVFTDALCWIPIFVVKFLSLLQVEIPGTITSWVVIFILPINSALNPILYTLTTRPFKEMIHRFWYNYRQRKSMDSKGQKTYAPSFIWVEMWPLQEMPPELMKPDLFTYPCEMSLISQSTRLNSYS
Kind of experiment: RXFP1 cAMP assay (hRXFP1 HEK293 cAMP assay, HTRF). The class given is cell-based. The essentials: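 Potency and activity come from a four-parameter logistic fit of cAMP against compound concentration, tested from 0.010 nM up to 50 μM. The assay uses HEK293 cells stably expressing human RXFP1, incubated 30 min at ambient temperature with phosphodiesterase inhibitor IBMX present.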

[1] abbreviates: HEK293 cells stably expressing human RXFP1, 30 min at room temperature, read-out: cAMP hRXFP1 HEK293 Assay EC50.
Where [2] appears, read: cAMP hRXFP1 HEK293 Assay EC50, HEK293 cells stably expressing human RXFP1, 30 min at room temperature.

As for `COc1ccc(C2=NOC3CC(CO)CC23)cc1C(=O)N[C@H]1[C@@H](C(=O)Nc2ccc(F)c(C(F)(F)F)c2)[C@H]2CC[C@@H]1/C2=C\c1cnc(C)s1` (some centres unmarked) [compound 804], the negative-log EC50 (pEC50) under setting [1] was 8.40.

Take `COc1ccc(-c2cc(C(OC(=O)NCCC(F)(F)F)C(F)(F)F)ccc2F)cc1C(=O)N[C@@H]1C2CCC(/C2=C/C2CC2)[C@@H]1C(=O)Nc1ccc(F)c(C(F)(F)F)c1` (some centres unmarked) [compound 213]: the pEC50 under setting [1] was 8.70. Regarding `COc1c(I)cc(I)cc1C(=O)N[C@@H]1C2CCC(/C2=C/c2ccccc2)[C@@H]1C(=O)Nc1ccc(F)c(C(F)(F)F)c1` (some centres unmarked) [compound 132], the pEC50 under setting [1] was 6.66. The same measure, in the same setting: in the case of `COc1ccc(-c2cc(C(OC(=O)Nc3ccccc3)C(F)(F)F)ccc2F)cc1C(=O)N[C@@H]1C2CCC(/C2=C/C2CC2)[C@@H]1C(=O)Nc1ccc(F)c(C(F)(F)F)c1` (single isomer, unassigned) [compound 224] it was 8.70. `CNC(=O)OC(C(=O)O)c1ccc(F)c(-c2ccc(OC)c(C(=O)N[C@@H]3C4CCC(/C4=C/C4CC4)[C@@H]3C(=O)Nc3ccc(F)c(C(F)(F)F)c3)c2)c1` (some centres unmarked) [Example 179] showed a negative logarithm of the EC50 (pEC50) under setting [2] of 8.30. Turning to `COc1ccc(C2=NOC3COCC23)cc1C(=O)N[C@H]1[C@@H](C(=O)Nc2ccc(F)c(OC(F)(F)F)c2)[C@H]2CC[C@@H]1/C2=C\C1CC1` (some centres unmarked) [compound 761], under setting [1], the negative-log EC50 (pEC50) is 8.72.

`COc1ccc(-c2cccc3c2CN(C(=O)C(C)(C)O)C3)cc1C(=O)N[C@@H]1C2CCC(/C2=C/C2CC2)[C@@H]1C(=O)Nc1ccc(F)c(C(F)(F)F)c1` (some centres unmarked) [compound 889]: the pEC50 under setting [1] was 8.07. Regarding `COc1ccc(C2=NOC3COCC23)cc1C(=O)N[C@H]1[C@@H](C(=O)NC2CCC2)[C@H]2CC[C@@H]1/C2=C\C1CC1` (some centres unmarked) [compound 635], under setting [1], the pEC50 is 6.72.

As for `COc1ccc(C2=NO[C@H]3COC[C@@H]23)cc1C(=O)N[C@H]1[C@@H](C(=O)Nc2ccc(F)c(C(F)(F)F)c2)[C@H]2CC[C@@H]1/C2=C\CCC1CC1` [compound 839], under setting [1], the pEC50 is 8.36. Still for that read-out and setting: in the case of `COc1ccc(-c2cc(C(NC(C)=O)C(=O)O)ccc2F)cc1C(=O)N[C@@H]1C2CCC(/C2=C/C2CC2)[C@@H]1C(=O)Nc1ccc(F)c(C(F)(F)F)c1` (some centres unmarked) [compound 184] it was 7.96. As for `COc1ccc(-c2cc(C(=O)O)ccc2F)cc1C(=O)N[C@@H]1C2CCC(/C2=C/c2ccccc2)[C@@H]1C(=O)Nc1cccc(S(=O)(=O)C(F)(F)F)c1` (some centres unmarked) [compound 122], the pEC50 under setting [1] was 7.89.

For the compound `COCCOC1(C2CC(c3ccc(OC)c(C(=O)N[C@H]4[C@@H](C(=O)Nc5ccc(F)c(C(F)(F)F)c5)[C@H]5CC[C@@H]4/C5=C\C4CC4)c3)=NO2)CC1` (single isomer, unassigned) [compound 687], the pEC50 under setting [1] is 6.18.

For `COc1ccc(C2=NOC(C)(CO)C2)cc1C(=O)N[C@H]1[C@@H](C(=O)Nc2ccc(F)c(C(F)(F)F)c2)[C@H]2CC[C@@H]1C2=CC1CC1` (single isomer, unassigned) [compound 571], under setting [1], the pEC50 is 7.19. `COc1ccc(C2=NO[C@@H]3C[C@H](CO)CN23)cc1C(=O)N[C@H]1[C@@H](C(=O)Nc2ccc(F)c(C(F)(F)F)c2)[C@H]2CC[C@@H]1/C2=C\C1CC1` [compound 846]: the negative-log EC50 (pEC50) under setting [1] was 8.74. Regarding `COc1ccc(C2CCCN2C(=O)C(C)(C)O)cc1C(=O)N[C@@H]1C2CCC(C2=CC2CC2)[C@@H]1C(=O)Nc1ccc(F)c(C(F)(F)F)c1` (some centres unmarked) [compound 688], the pEC50 under setting [1] was 6.17. Regarding `COc1ccc(N2CC(=O)NC2=O)cc1C(=O)N[C@H]1[C@@H](C(=O)Nc2ccc(F)c(C(F)(F)F)c2)[C@H]2CC[C@@H]1/C2=C\C1CC1` [compound 697], under setting [1], the negative logarithm of the EC50 (pEC50) is 6.01. As to `O=C(NC1CCC1)O[C@@H](c1ccc(F)c(-c2ccc(OCCO)c(C(=O)N[C@@H]3C4CCC(/C4=C/C(F)(F)F)[C@@H]3C(=O)Nc3ccc(F)c(C(F)(F)F)c3)c2)c1)C(F)(F)F` (some centres unmarked) [compound 319], the pEC50 under setting [1] is 7.89.

`O=C(N[C@H]1[C@@H](C(=O)Nc2ccc(F)c(C(F)(F)F)c2)[C@H]2CC[C@@H]1/C2=C\C1CC1)c1cc(C2=NOC3CC(CO)CC23)ccc1OCCCF` (some centres unmarked) [compound 787]: the pEC50 under setting [1] was 8.38. As for `COc1ccc(-c2cc(C(OC(=O)NC3CCC3)C(=O)O)ccc2F)cc1C(=O)N[C@H]1[C@@H](C(=O)Nc2ccc(F)c(C(F)(F)F)c2)[C@H]2CC[C@@H]1/C2=C\C(C)C` (some centres unmarked) [compound 938], the negative logarithm of the EC50 (pEC50) under setting [1] was 8.77.

Take `COc1cc(F)c(F)cc1C(=O)N[C@@H]1C2CCC(/C2=C/c2ccc(Cl)cc2)[C@@H]1C(=O)Nc1ccc(F)c(C(F)(F)F)c1` (some centres unmarked) [compound 21]: the negative-log EC50 (pEC50) under setting [1] is 7.26. For `COc1c(F)cc(-c2cnc3n2CC(O)CC3)cc1C(=O)N[C@H]1[C@@H](C(=O)Nc2ccc(F)c(C(F)(F)F)c2)[C@H]2CC[C@@H]1/C2=C\C1CC1` (some centres unmarked) [compound 751], the pEC50 under setting [1] is 8.66. Take `O=C(N[C@H]1[C@@H](C(=O)Nc2ccc(F)c(C(F)(F)F)c2)[C@H]2CC[C@@H]1/C2=C\C1CC1)c1cc(C2=NOC3CC(CO)CC23)ccc1OCCCF` (some centres unmarked) [compound 788]: under setting [1], the pEC50 was 8.37. Still for that read-out and setting: in the case of `COc1ccc(-c2ccc3c(C(=O)OCc4ccccc4)cnn3c2)cc1C(=O)N[C@@H]1C2CCC(/C2=C/C(F)(F)F)[C@@H]1C(=O)Nc1ccc(F)c(C(F)(F)F)c1` (some centres unmarked) [compound 316] it was 7.09.

As to `COc1ccc(-c2cc(C3=NOC(C(=O)O)C3)ccc2F)cc1C(=O)N[C@H]1[C@@H](C(=O)Nc2ccc(F)c(C(F)(F)F)c2)[C@H]2CC[C@@H]1/C2=C\C1CC1` (some centres unmarked) [compound 947], the pEC50 under setting [1] was 8.07. Regarding `COc1ccc(C2=NOC3COCC23)cc1C(=O)N[C@H]1[C@@H](C(=O)NC2CCCCC2)[C@H]2CC[C@@H]1/C2=C\C1CC1` (some centres unmarked) [compound 552], the pEC50 under setting [1] was 7.44.

In the case of `CNC(=O)c1ccc(-c2ccc(OC)c(C(=O)N[C@@H]3C4CCC(/C4=C/c4ccccc4)[C@@H]3C(=O)Nc3ccc(F)c(C(F)(F)F)c3)c2)c(F)c1` (some centres unmarked) [compound 196], under setting [1], the pEC50 was 7.35.

`COc1cc(F)c(F)cc1C(=O)N[C@@H]1[C@H](C(=O)Nc2ccc(F)c(C(F)(F)F)c2)[C@@H]2CC[C@H]1C2C(C)C` (some centres unmarked) [compound 975]: the pEC50 under setting [2] is 6.00. `COc1ccc(C2=NOC3COCC23)cc1C(=O)N[C@H]1[C@@H](C(=O)NCc2ncccc2C(F)(F)F)[C@H]2CC[C@@H]1/C2=C\C1CC1` (some centres unmarked) [compound 690]: the pEC50 under setting [1] was 6.15. With `COc1ccc(C2=NOC3CC(C(O)C(F)(F)F)CC23)cc1C(=O)N[C@H]1[C@@H](C(=O)Nc2ccc(F)c(C(F)(F)F)c2)[C@H]2CC[C@@H]1/C2=C\C1CC1` (some centres unmarked) [compound 856], the pEC50 under setting [1] is 8.33. For `COc1ccc(C2=NOC3CC(CO)CC23)cc1C(=O)N[C@H]1[C@@H](C(=O)NC2(C)CCCC2)[C@H]2CC[C@@H]1/C2=C\C1CC1` (some centres unmarked) [compound 466], the negative logarithm of the EC50 (pEC50) under setting [1] is 8.41. For the compound `COc1cc(F)c(F)cc1C(=O)N[C@@H]1C2CCC(/C2=C/c2cccc(OC(F)F)c2)[C@@H]1C(=O)Nc1ccc(F)c(C(F)(F)F)c1` (some centres unmarked) [compound 27], under setting [1], the pEC50 was 6.42. Consider `COc1ccc(-c2ccc(C(=O)O)cc2)cc1C(=O)N[C@H]1[C@@H](C(=O)Nc2ccc(F)c(C(F)(F)F)c2)[C@H]2CC[C@@H]1/C2=C/c1ccccc1` [compound 94], for which the negative-log EC50 (pEC50) under setting [1] is 6.40. Same read-out and setting: in the case of `COc1ccc(N2CCC(NC(=O)OC(C)(C)C)C2)cc1C(=O)N[C@@H]1C2CCC(/C2=C/C(F)(F)F)[C@@H]1C(=O)Nc1ccc(F)c(C(F)(F)F)c1` (some centres unmarked) [compound 334] it was 5.86; in that of `COc1ccc(C2=NOC(C(=O)O)C2)cc1C(=O)N[C@H]1[C@@H](C(=O)Nc2ccc(F)c(C(F)(F)F)c2)[C@H]2CC[C@@H]1/C2=C\C1CC1` (mixture of isomers) [Example 384, 3-(3-(((1R,2R,3S,4R,Z)-7-(cyclopropylmethylene)-3-((4-fluoro-3-(trifluoromethyl)phenyl)carbamoyl)bicyclo[2.2.1]heptan-2-yl)carbamoyl)-4-methoxyphenyl)-4,5-dihydroisoxazole-5-carboxylic acid], 6.91. The same measure, in the same setting: for `COc1ccc(-c2cc([C@H](OC(=O)NC3CCC3)C(F)(F)F)ccc2F)cc1C(=O)N[C@H]1[C@@H](C(=O)Nc2ccc(F)c(C(F)(F)F)c2)[C@H]2CC[C@@H]1/C2=C\C[C@@H](O)C(F)(F)F` [compound 932] the value was 8.41. Turning to `COc1ccc(-c2cc(C(=O)O)ccc2F)cc1C(=O)N[C@@H]1C2CCC(/C2=C/c2cn(Cc3ccccc3)nn2)[C@@H]1C(=O)Nc1ccc(F)c(C(F)(F)F)c1` (some centres unmarked) [compound 326], under setting [1], the pEC50 was 5.64. On the same count and under the same terms, in the case of `COc1cc(C2CC2)c(C2=NOC3COCC23)cc1C(=O)N[C@H]1C(C(=O)Nc2ccc(F)c(C(F)(F)F)c2)[C@H]2CC[C@@H]1/C2=C\C1CC1` (single isomer, unassigned) [Example 626] it was 6.77. With `COc1c(F)cc(C2=NOC3CC(CO)CC23)cc1C(=O)N[C@H]1[C@@H](C(=O)N[C@H](C)C2(C)CC2(F)F)[C@H]2CC[C@@H]1/C2=C\C1CC1` (some centres unmarked) [compound 756], the pEC50 under setting [1] is 9.40.
